Where a name gives a salt, the structure may show the parent alone.
Assays:
IRE1 = assay: XBP1 splicing (IRE1 activity) PCR in CLL cells; format: cell-based, human
Procedure: RNA was extracted using TRIzol reagent (Invitrogen, Carlsbad, Calif.) and purified using QIAGEN RNeasy columns (Qiagen, Valencia, Calif.). cDNA was prepared with SuperScript First-Strand Synthesis System (Invitrogen). Real-time PCR was performed using primers purchased from Applied Biosystems. Detection was performed using an ABI Prism 7700 sequence detection system (Applied Biosystems). Average relative expression (treatment compared with vehicle) was normalized to the internal control gene CD52. Primers to detect spliced XBP1 were designed using Primer 3 software and purchased from IDT. Samples were analyzed on 10% acrylamide gels.

caspases 4 and 8 = assay: Caspase 4 and 8 activity in samples from CLL patients treated with flavopiridol; format: in vivo, human; conditions: 4.5 hours following flavopiridol infusion
Procedure: The presence of active caspase enzymes was determined by the AFC assay. Briefly, lysates containing approximately 3×10^6 cells were incubated with 50 μM LEVD-AFC (caspase 4 substrate) or LETD-AFC (caspase 8 substrate) from MP Biomedicals (Solon, Ohio) in 2× cytobuffer from BioVision (Exton, Pa.) containing 10 mM dithiothretiol (DTT). Caspase 4 activity was measured one hour after addition of substrate and caspase 8 activity was measured 30 minutes after addition of substrate. Release of free AFC was measured with a Beckman-Coulter DTX 880 multimode detector (Filters: excitation, 405/10 nm; emission, 535/25 nm). Caspase 4 inhibitor Z-YVAD-FMK was purchased from R&D Systems.

IRE1-ASK1-TRAF2 complex = assay: Co-immunoprecipitation of IRE1-ASK1-TRAF2 complex in 697 cells; format: cell-based
Procedure: Proteins extracted from whole cell lysates (50 μg/lane) were separated on polyacrylamide gels and transferred on nitrocellulose membrane. Antibodies used for immunoblots included LC3, IRE1α, TRAF2, PI3K III, ATG4C, ATG5-12, UVRAG, Beclin-1 (Cell Signaling, Boston, Mass.), GAPDH, Nrf2, ASK1, ULK1 (Santa Cruz Biotechnology), and Bif-1, ATG14-Barkor (Sigma-Aldrich, St Louis, Mo.). Species-appropriate secondary antibodies were obtained from BioRad Laboratories (Hercules, Calif.). Following antibody incubations, proteins were detected using a chemiluminescent substrate (BioRad Laboratories). For co-immunoprecipitations, TrueBlot beads (eBiosciences, San Diego, Calif.) and One-hour IP Western kit (GenScript, Piscataway, N.J.) were used according to manufacturer protocols. Quantification was done using FluorChem Q (Alpha Innotech, San Leandro Calif.).

697 cells = assay: ChIP assay of ATF6 at GRP78 promoter in 697 cells; format: cell-based; conditions: relative to IgG control
Procedure: In brief, cells were treated with 37% formaldehyde to ensure crosslinking of proteins to DNA. Cells were lysed and sonicated to shear the chromatin to fragments of approximately 500 bp. Sheared chromatin was incubated with ATF6 antibody (LifeSpan Biosciences, Seattle, Wash.), followed by precipitation, washing and reversing of the crosslinks Purified DNA was then analyzed by real-time quantitative PCR using primers to the GRP78 promoter region. Primers were designed using Primer 3 software and purchased from IDT (Coralville, Iowa).

CLL cells [1] = assay: LC3 fluorescence in CLL cells from patients treated with flavopiridol in clinic; format: in vivo, human
Procedure: In this trial, CLL cells were collected pre- and post-therapy 4.5 hours, day 1 (n=16). By confocal fluorescence microscopy, both increased autophagosome formation (P=0.0011) and fusion with lysosomes is observed (FIG. 3F). […] The level of autophagy, as assessed by LC3 fluorescence intensity, was overall greater in non-responders versus responders in both pre- and post-treatment samples (P=0.018); however, the increase in intensity at 4.5 hours post- vs. pre-treatment was only slightly higher for non-responders compared to responders (fold change of 2.51 vs. 1.82, P=0.3445). […] Collectively, these studies provide evidence that our in vitro observations are relevant to the clinical setting.
After 4 hours exposure to agents, cells were washed in phosphate-buffered saline (PBS) and made adherent on a microscope slide by centrifugation in a Cytospin3 (Shandon) centrifuge. Immediately after cytospin, cells were fixed in cold acetone. Next, the cells were incubated in blocking solution (2% bovine serum albumin in PBS) and stained for LC3 (Cell Signaling, Boston, Mass.)) and Lamp2 (Santa Cruz Biotechnology, Santa Cruz, Calif.) by incubating separately with the respective primary antibodies over night, in 4° C., followed by incubation with fluorescent secondary antibodies (Invitrogen, Carlsbad, Calif.): Alexa fluor 594 (red) anti-rabbit for LC3 and Alexa fluor 488 (green) anti-mouse for Lamp2. Nuclei were stained blue with DAPI (Vector Laboratories, Burlingame, Calif.). Images were taken using a 60× objective and 4× digital zoom with Olympus Fluoview 1000 Laser Scanning Confocal microscope at the Ohio State University Campus Microscopy and Imaging Facility. ATF6 antibody was purchased from LifeSpan Biosciences (Seattle, Wash.) and Nrf2 was from Santa Cruz Biotechnology (Santa Cruz, Calif.). Nuclei were evaluated for ATF6 and Nrf2 using confocal microscopy to collect Z stacks, approximately 45 slices per cell, 0.2 μm each.
LC3 intensity and number of dots per cell were both assessed in the fluorescence images. Integrated intensity was measured using Metamorph v.7.0. […] To quantify co-localization, two binary nuclei images—red (R) and green (G)—are obtained. The correlation value is calculated as the number of white pixels of (R&G) divided by the number of pixels of (RIG), where (R&G) is the intersection of R and G, and (RIG) is the union of R and G. The program used for cell counts and measurement of correlation index is based on MatLab software (Natick, Mass.) and it was developed by members of Department of Biomedical Informatics, The Ohio State University.
For the quantification of LC3 fluorescence in serial samples (in vivo data), CLL patients were classified as either “no response” (N=10) or “partial response” (N=6). […]

CLL cells [2] = assay: LC3-Lamp2 co-localization (autophagosome-lysosome fusion) by confocal microscopy in CLL cells; format: cell-based, human; conditions: CLL cells, 4 hours, flavopiridol 2 μM
Procedure: After 4 hours exposure to agents, cells were washed in phosphate-buffered saline (PBS) and made adherent on a microscope slide by centrifugation in a Cytospin3 (Shandon) centrifuge. Immediately after cytospin, cells were fixed in cold acetone. […] Nuclei were stained blue with DAPI (Vector Laboratories, Burlingame, Calif.). Images were taken using a 60× objective and 4× digital zoom with Olympus Fluoview 1000 Laser Scanning Confocal microscope at the Ohio State University Campus Microscopy and Imaging Facility. ATF6 antibody was purchased from LifeSpan Biosciences (Seattle, Wash.) and Nrf2 was from Santa Cruz Biotechnology (Santa Cruz, Calif.). Nuclei were evaluated for ATF6 and Nrf2 using confocal microscopy to collect Z stacks, approximately 45 slices per cell, 0.2 μm each.
LC3 intensity and number of dots per cell were both assessed in the fluorescence images. Integrated intensity was measured using Metamorph v.7.0. To calculate the number of “dots” (local extreme point in pixel-intensity profile at which a number of high-intensity pixels form a cluster), a Gaussian filter was first applied to reduce noise. Cells were enumerated electronically by an improved watershed-based algorithm. To quantify co-localization, two binary nuclei images—red (R) and green (G)—are obtained. […]

CN1CC[C@H](c2c(O)cc(O)c3c(=O)cc(-c4ccccc4Cl)oc23)[C@H](O)C1 [flavopiridol, (cis-5,7-dihydroxy-2-(2-chlorophenyl)-8-[4-(3-hydroxy-1-methyl)-piperidin-yl]-1-benzopyran-4-one)hydrochloride]
IRE1 activity (splicing of IRE1 substrate XBP1) (IRE1; CLL cells): no evidence of IRE1 activity
CLL samples with deficiency in XBP1 splicing (IRE1; CLL samples tested): 8 of 10
patient samples with at least a two-fold increase in activity of caspases 4 and 8 (caspases 4 and 8): 13 of 20
ASK1 and IRE1 protein in TRAF2 co-immunoprecipitates (IRE1-ASK1-TRAF2 complex): increased levels of ASK1 and IRE1 protein in TRAF2 co-immunoprecipitates
binding of GRP78 promoter region by ATF6 (697 cells): enhanced binding of the GRP78 promoter region by ATF6
average increase in LC3 integrated intensity at 4.5 hours after flavopiridol infusion versus pretreatment (CLL cells [1]; CLL patients n=16, all): 2.16 fold
fold change of LC3 intensity 4.5 hours vs pre-treatment, non-responders (CLL cells [1]; non-responders (N=10)): 2.51 fold
overall LC3 intensity, non-responders compared to responders (CLL cells [1]; pre- and post-treatment samples, 95% CI 1.07, 1.95): 1.44 times
fold change of LC3 intensity 4.5 hours vs pre-treatment, responders (CLL cells [1]; responders (N=6)): 1.82 fold
autophagy flux by LC3-Lamp2 co-localization, agent alone (CLL cells [2]): unrestricted autophagy flux was demonstrated by co-localization of LC3 and Lamp2

Source: patent US9044474B2, “Compositions and methods for increasing drug efficacy in cancer” (The Ohio State University, priority 2010, dated 2015)
